Among the data in US6900194B1, “Use of substituted 4-biarylbutyric and 5-biarylpentanoic acid derivatives as matrix metalloprotease inhibitors for the treatment of respiratory diseases” (Bayer Aktiengesellschaft, priority 1998, dated 2005) are IC50 values, retold here.

Bounds are passed on as bounds.

For experiment [1], the target named is T1, MMP-12 (Macrophage Elastase) (Homo sapiens, UniProt P39900).
T1 construct: made in house; host or cells: E. coli BL21 (DE3)
As to the kind of experiment: P218 quenched fluorescence assay, MMP-12. The experiment is classed as biochemical. To be noted: table 3. From the text: P218 Quenched Fluorescence Assay for MMP Inhibition:
This assay is adapted from the one described by Knight et al., FEBS Letters, 296, 263-266 (1992) for MMP-3 and a related substrate. The rate of hydrolysis of the synthetic substrate H-MCA-Pro-Lys-Pro-Leu-Ala-Leu-DPA-Ala-Arg-NH2 (P218) by the respective MMPs is monitored fluorometrically, using an excitation wavelength of 340 nm and an emission wavelength of 395 nm, in the presence or absence of the test compounds. The substrate is made up initially in 100% DMSO to a concentration of 1×10^−2 M, then diluted in assay buffer to a final concentration of 20 μM. Test compounds (10 mM in DMSO) are diluted in assay buffer at an initial concentration of 0.3-1000 nM. These are diluted to a final concentration in the assay from 0.03 nM to 100 nM. The reaction is initiated by the addition of substrate at a final concentration of 20 μM. The total assay volume in a 96 well microtitre plate is 150 μl, Cleavage of the substrate between the Leu-Ala residues allows the fluorescence of the MCA group to be detected on a fluorometer (Cytofluor II) following excitation at 340 nm and emission at 395 nm. Change in fluorescence is continually monitored for a 40 min period.
The Ki's are calculated using the method described by Williams and Morrison, Methods in Enzymology, 63, 437-467 (1979) to measure Ki apparent for tight binding inhibitors, and is summarised as follows: [I]0/(1−vi/v0)=Ki apparent ×vi/v0+[E]0 [I]0 and [E]0 are inhibitor and enzyme concentrations, and vi/v0 are reaction velocities with/without inhibitor. [I]0 is equal to IC50 when vi is half v0, so that: IC50=0.5×[E]0+Ki apparent
IC50's are determined at each enzyme concentration using Xlfit software. Ki apparent is then determined graphically from the plot of IC50 versus MMP concentration, using the intercepts to estimate Ki apparent. Thus, intercept values at IC50=0 and [E]0=0 are equal to −2×Ki apparent and Ki apparent, respectively. IC50 values are calculated using % inhibition values at each enzyme concentration, ensuring data is taken from the linear part of the reaction rate curves. The Ki can then be calculated from the equation: Ki=Ki apparent/[…] where S=substrate concentration and Km=dissociation constant.
The assay conditions are modified as follows for each of the MMPs used:
MMP-12 (Macrophage Elastase)
[…] is isolated according to the following procedure: Human GenePool cDNA libraries from human lung, spleen, and brain were obtained from Invitrogen (Groningen, The Netherlands). HPLC-purified oligonucleotides were purchased from BioTez (Berlin, Germany), E. coli strain DH5α from Life Technologies (Heidelberg, Germany), strain BL21(DE3) from Novagen (Heidelberg, Germany). Pfu DNA-Polymerase and pBlueScriptII-KS(+) were from Stratagene (Heidelberg, Germany). DNA plasmid and DANN gel isolation kits were purchased from Qiagen (Hilden, Germany). All restriction enzymes and DNA modifying enzymes were ordered from New England Biolabs (Schwalbach, Germany). HiTrapQ (5 ml) was from Pharmacia Biotech (Freiburg, Germany). Vydac C4-RP HPLC columns (214TP54: 300 Å, 5 μm, 4.6×250 mm; 214TP1022: 300 Å, 10 μm, 22×250 mm) were from Promochem (Wesel, Germany). Fluorogenic substrate P218 was purchased from Polypeptide Laboratories (Wolfenbüttel, Germany). Ultrapure urea was purchased from Schwarz-Mann (Cleveland, Ohio). Ready-to-use NuPAGE 10% Bis-Tris Polyacrylamide SDS-PAGE gels and NuPAGE 20×MOPS running buffer were obtained from Novex (Frankfurt/Main, Germany) 10% AMPA and all other chemicals were from Sigma (Deisenhofen, Germany). […]

For experiment [2], the system named is Murine peritoneal macrophages. To be noted: read-out: IC50, inhibition of trafficking of murine peritoneal macrophages across artificial basement membrane; Matrigel; murine MCP-1 5 ng/ml; 48-98 h. Here is the method:
(§1) In vitro Functional Tests • 1. Human alveolar macrophages • Human alveolar macrophages were obtained by bronchoscopy of healthy smoking volunteers. Cells were spun and resuspended at 2×10^6/ml. Trafficking of alveolar macrophages (+or −lipopolysaccharide 2.5 μg.ml) across an artificial basement membrane (Matrigel) was induced by human MCP-1 (5 ng/ml) over a 48-98 h period. […] Murine peritoneal macrophages • Murine macrophages were obtained from mice 5 days after an intraperitoneal injection of thioglycollate. Cells were spun and resuspended at 2×10^6/ml. Trafficking of peritoneal macrophages across an artificial basement membrane (Matrigel) was induced by murine MCP-1 (5 ng/ml) over a 48-98 h period. […] LPS Induced TNFα Production in Mice

For experiment [3], the system named is Human alveolar macrophages. Conditions: read-out: IC50, inhibition of MCP-1-induced trafficking of human alveolar macrophages across artificial basement membrane; Matrigel; human MCP-1 5 ng/ml; 48-98 h; + or − lipopolysaccharide. Here is the method:
as §1

T1 sequence (P39900 106-470): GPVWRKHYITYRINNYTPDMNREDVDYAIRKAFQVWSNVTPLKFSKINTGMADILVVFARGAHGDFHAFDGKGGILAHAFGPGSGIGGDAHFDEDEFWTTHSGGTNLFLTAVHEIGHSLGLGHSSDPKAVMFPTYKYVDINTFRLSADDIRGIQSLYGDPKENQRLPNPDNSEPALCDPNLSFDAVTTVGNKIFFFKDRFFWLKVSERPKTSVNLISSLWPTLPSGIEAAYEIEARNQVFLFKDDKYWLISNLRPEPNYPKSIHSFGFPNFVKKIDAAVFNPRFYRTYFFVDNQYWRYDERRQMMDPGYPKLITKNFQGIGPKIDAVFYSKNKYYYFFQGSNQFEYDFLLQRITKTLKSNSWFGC

As for `O=C(O)[C@H]1[C@H](CN2C(=O)c3cc(Cl)c([N+](=O)[O-])cc3C2=O)CC[C@@H]1C(=O)c1ccc(-c2ccc(Cl)cc2)cc1` (racemic) [C-XXX], the IC50 (commonly the concentration that inhibits the measured activity by half) in experiment [1] was determined as 4.5 nM.

With `O=C(c1ccc(-c2ccc(Cl)cc2)cc1)C1CCC(CN2C(=O)c3ccccc3C2=O)C1C(=O)O` (stereo not drawn) [(1α,2β,5β)-2-{[4′-chloro(1,1′-biphenyl)-4-yl]carbonyl}-5-[(1,3-dihydro-1,3-dioxo-2H-isoindol-2-yl)methyl]-cyclopentane carboxylic acid], the IC50 in experiment [2] and in experiment [3] was at most 1000 nM throughout. In experiment [1], `CCCOc1ccc2c(c1)C(=O)N(CCC(CC(=O)c1ccc(-c3ccc(Cl)cc3)cc1)C(=O)O)C2=O` (stereo not shown) [C-V] showed a 50% inhibitory concentration (IC50) of 1.7 nM. In the case of `O=C(O)[C@H]1[C@H](CN2C(=O)c3cc4ccccc4cc3C2=O)CC[C@@H]1C(=O)c1ccc(-c2ccc(Cl)cc2)cc1` (racemic) [C-XVIII], the IC50 in experiment [1] is 1 nM. In turn, `O=C(CC(CCN1C(=O)c2ccccc2C1=O)C(=O)O)c1ccc(-c2ccc(OCc3ccccc3)cc2)cc1` (stereo not shown) [C-XXII] came in with an IC50 in experiment [1] of 1.6 nM. `CCCCCOc1ccc(-c2ccc(C(=O)CC(CCN3C(=O)c4ccccc4C3=O)C(=O)O)cc2)cc1` (stereo not shown) [C-III] registered an IC50 in experiment [1] of 2.8 nM.
